Values belong to the molecule of their own block, whether it stands above or below them. Activity calls are given as the source filed them. No cut-off for these calls is given here.
Legend:
[1] = molecular target: T1, Nuclear receptor subfamily 1 group I member 3 (Homo sapiens, UniProt Q14994); assay: Inhibition of GST-tagged human CAR LBD incubated for 90 mins by TR-FRET assay
T1 sequence (Q14994 whole entry): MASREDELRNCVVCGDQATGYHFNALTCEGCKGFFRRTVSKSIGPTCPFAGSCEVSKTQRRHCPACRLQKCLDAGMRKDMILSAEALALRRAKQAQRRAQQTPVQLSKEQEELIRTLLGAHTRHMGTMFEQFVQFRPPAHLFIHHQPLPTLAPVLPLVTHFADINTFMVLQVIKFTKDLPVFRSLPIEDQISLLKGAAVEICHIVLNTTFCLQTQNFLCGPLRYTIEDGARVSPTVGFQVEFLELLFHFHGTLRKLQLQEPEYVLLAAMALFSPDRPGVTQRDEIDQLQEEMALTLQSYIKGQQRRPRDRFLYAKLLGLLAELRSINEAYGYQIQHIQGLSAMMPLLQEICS

[2] = molecular target: T2, Glycogen synthase kinase-3 alpha (Homo sapiens, UniProt P49840); assay: Inhibition of GST-tagged human GSK3A incubated for 90 mins by TR-FRET assay
[3] = molecular target: T3, Mitogen-activated protein kinase 15 (Homo sapiens, UniProt Q8TD08); assay: Inhibition of Flag/His-tagged human MAPK15 incubated for 90 mins by TR-FRET assay
T3 sequence (Q8TD08 whole entry): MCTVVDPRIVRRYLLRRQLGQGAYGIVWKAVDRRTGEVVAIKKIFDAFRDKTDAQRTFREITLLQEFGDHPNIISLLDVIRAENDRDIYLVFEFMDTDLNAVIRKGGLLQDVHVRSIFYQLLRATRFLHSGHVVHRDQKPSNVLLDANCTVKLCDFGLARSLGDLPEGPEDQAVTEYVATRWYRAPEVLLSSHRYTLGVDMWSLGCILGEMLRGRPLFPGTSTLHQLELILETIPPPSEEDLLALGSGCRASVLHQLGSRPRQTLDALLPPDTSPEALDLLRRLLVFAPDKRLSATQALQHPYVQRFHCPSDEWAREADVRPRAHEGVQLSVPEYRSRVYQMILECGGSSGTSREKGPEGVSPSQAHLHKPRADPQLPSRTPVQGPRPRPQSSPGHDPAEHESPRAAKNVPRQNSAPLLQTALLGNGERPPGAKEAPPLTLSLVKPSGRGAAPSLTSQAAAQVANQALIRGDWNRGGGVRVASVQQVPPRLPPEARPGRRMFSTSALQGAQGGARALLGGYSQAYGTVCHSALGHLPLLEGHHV

[4] = molecular target: T4, Calcium/calmodulin-dependent protein kinase kinase 2 (Homo sapiens, UniProt Q96RR4); assay: Inhibition of GST-tagged human CAMKK2 incubated for 90 mins by TR-FRET assay
Target sequence in this assay (Q96RR4 whole entry): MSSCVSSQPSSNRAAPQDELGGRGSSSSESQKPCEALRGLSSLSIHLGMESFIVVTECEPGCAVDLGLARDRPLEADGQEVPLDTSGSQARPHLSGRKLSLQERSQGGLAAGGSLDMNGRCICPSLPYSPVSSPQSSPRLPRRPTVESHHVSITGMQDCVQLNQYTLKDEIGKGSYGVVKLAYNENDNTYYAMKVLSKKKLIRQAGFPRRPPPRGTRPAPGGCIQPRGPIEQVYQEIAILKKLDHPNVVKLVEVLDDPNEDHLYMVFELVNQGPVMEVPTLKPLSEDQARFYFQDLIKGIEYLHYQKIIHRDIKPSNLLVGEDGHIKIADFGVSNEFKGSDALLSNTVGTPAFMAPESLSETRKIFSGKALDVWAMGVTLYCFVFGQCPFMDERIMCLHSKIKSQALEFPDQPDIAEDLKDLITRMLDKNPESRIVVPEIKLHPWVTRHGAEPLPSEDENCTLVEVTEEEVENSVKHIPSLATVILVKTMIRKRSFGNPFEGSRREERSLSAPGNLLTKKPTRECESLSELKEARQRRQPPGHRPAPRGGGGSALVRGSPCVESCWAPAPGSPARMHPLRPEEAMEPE

[5] = molecular target: T5, Peripheral plasma membrane protein CASK (Homo sapiens) (UniProt O14936); assay: Inhibition of GST-tagged human CASK at 90 uM incubated for 90 mins by TR-FRET assay relative to control
T5 sequence (whole entry): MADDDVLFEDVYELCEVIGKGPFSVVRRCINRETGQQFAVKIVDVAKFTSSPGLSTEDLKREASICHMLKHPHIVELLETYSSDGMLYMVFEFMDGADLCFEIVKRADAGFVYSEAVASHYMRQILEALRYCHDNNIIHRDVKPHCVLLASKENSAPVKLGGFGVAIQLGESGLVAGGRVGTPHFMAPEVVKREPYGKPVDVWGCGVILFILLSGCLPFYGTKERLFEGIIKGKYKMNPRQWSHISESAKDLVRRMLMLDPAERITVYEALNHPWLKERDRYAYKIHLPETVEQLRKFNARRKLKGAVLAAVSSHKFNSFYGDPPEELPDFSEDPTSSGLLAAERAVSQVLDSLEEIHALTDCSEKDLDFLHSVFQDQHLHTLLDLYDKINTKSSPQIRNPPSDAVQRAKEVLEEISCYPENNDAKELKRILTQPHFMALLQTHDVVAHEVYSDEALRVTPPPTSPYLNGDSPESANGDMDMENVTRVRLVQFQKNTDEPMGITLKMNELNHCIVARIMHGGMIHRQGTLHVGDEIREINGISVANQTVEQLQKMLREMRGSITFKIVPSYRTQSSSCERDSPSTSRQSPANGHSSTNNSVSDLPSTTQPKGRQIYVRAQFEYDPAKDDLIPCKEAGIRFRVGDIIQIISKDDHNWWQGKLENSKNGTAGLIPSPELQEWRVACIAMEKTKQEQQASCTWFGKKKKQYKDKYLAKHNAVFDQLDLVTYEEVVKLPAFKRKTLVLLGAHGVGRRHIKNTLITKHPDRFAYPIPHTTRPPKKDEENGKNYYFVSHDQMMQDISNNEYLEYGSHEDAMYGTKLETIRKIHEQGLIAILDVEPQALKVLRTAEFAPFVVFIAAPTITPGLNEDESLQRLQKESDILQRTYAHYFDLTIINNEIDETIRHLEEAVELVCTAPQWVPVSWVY

[6] = molecular target: T2, Glycogen synthase kinase-3 alpha; assay: Binding affinity to GST-tagged human GSK3A assessed as dissociation constant incubated for 90 mins by TR-FRET assay
[7] = molecular target: T4, Calcium/calmodulin-dependent protein kinase kinase 2; assay: Binding affinity to GST-tagged human CAMKK2 assessed as dissociation constant incubated for 90 mins by TR-FRET assay
Target sequence in this assay (Q96RR4 whole entry): as the sequence (Q96RR4 whole entry) above

[8] = molecular target: T1, Nuclear receptor subfamily 1 group I member 3; assay: Inhibition of GST-tagged human CAR LBD at […] incubated for 90 mins in presence of Cy5-PGC1-alpha by HTRF co-activator assay relative to control; conditions: 1.5 h, dose 3.3 µM, read-out: Imax
[9] = molecular target: T6, Peripheral plasma membrane protein CASK (Homo sapiens, UniProt O14936); assay: Binding affinity to GST-tagged human CASK assessed as dissociation constant incubated for 90 mins by TR-FRET assay
T6 sequence (O14936 whole entry): T5 sequence (whole entry)

[10] = molecular target: T7, Dual specificity tyrosine-phosphorylation-regulated kinase 2 (Homo sapiens) (UniProt Q92630); assay: Binding affinity to GST-tagged human DYRK2 incubated for 90 mins by TR-FRET assay
T7 sequence (whole entry): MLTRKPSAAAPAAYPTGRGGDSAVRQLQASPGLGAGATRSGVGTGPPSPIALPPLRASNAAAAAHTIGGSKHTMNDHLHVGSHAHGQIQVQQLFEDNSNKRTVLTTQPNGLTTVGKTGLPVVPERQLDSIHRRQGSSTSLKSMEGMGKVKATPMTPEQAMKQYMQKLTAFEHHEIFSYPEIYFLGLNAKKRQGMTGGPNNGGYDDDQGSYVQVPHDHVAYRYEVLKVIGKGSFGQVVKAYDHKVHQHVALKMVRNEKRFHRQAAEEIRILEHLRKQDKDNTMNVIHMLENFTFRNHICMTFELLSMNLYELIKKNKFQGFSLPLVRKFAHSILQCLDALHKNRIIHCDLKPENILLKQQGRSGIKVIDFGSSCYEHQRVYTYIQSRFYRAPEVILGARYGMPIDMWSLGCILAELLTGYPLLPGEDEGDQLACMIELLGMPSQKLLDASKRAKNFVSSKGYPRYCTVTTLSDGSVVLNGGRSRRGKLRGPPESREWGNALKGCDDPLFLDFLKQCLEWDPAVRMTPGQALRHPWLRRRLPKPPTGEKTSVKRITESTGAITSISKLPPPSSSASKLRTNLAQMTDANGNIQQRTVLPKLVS

[11] = molecular target: T1, Nuclear receptor subfamily 1 group I member 3; assay: Inhibition of GST-tagged human CAR LBD incubated for 90 mins in presence of Cy5-PGC1-alpha by HTRF co-activator assay
[12] = molecular target: T1, Nuclear receptor subfamily 1 group I member 3; assay: Binding affinity to GST-tagged human CAR LBD assessed as fold change in FRET signal at 125 nM incubated for 90 mins by TR-FRET assay relative to control; conditions: 1.5 h, 0.125 µM
[13] = molecular target: T1, Nuclear receptor subfamily 1 group I member 3; assay: Binding affinity to GST-tagged human CAR LBD assessed as fold change in FRET signal at 298.2 nM incubated for 90 mins by TR-FRET assay relative to control; conditions: 1.5 h, 0.2982 µM
[14] = molecular target: T3, Mitogen-activated protein kinase 15; assay: Binding affinity to Flag/His-tagged human MAPK15 assessed as dissociation constant incubated for 90 mins by TR-FRET assay
[15] = molecular target: T1, Nuclear receptor subfamily 1 group I member 3; assay: Binding affinity to GST-tagged human CAR LBD assessed as dissociation constant incubated for 90 mins by TR-FRET assay
[16] = molecular target: CDK9/cyclin T1 (Homo sapiens, UniProt P50750); assay: Binding affinity to His-tagged human CDK9/CycT1 assessed as dissociation constant incubated for 90 mins by TR-FRET assay; format: protein-complex assay
[17] = molecular target: T4, Calcium/calmodulin-dependent protein kinase kinase 2; assay: Binding affinity to GST-tagged human CAMKK2 assessed as fold change in FRET signal at 30 uM incubated for 90 mins by TR-FRET assay relative to control
Target sequence in this assay (Q96RR4 2-588 limits assumed): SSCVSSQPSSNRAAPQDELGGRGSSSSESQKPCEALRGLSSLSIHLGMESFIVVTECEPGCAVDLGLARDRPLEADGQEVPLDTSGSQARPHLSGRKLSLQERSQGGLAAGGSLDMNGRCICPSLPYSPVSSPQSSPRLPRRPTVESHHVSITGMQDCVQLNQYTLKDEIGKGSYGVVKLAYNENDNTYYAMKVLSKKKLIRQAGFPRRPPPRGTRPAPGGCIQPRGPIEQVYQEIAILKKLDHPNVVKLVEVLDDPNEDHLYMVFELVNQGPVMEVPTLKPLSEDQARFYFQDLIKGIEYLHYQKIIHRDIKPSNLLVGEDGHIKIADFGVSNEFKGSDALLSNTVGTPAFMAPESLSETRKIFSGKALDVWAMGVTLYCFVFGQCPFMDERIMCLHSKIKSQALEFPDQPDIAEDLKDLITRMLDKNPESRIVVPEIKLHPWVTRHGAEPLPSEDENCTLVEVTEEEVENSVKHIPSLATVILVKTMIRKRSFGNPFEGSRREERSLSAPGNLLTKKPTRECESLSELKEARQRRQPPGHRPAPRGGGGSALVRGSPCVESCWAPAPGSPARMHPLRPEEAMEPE

[18] = molecular target: T5, Peripheral plasma membrane protein CASK (Homo sapiens); assay: Inhibition of GST-tagged human CASK at 30 uM incubated for 90 mins by TR-FRET assay relative to control
[19] = molecular target: CDK9/cyclin T1 (Homo sapiens) (UniProt O60563+P50750); assay: Inhibition of His-tagged human CDK9/CycT1 incubated for 90 mins by TR-FRET assay relative to control; format: protein-complex assay
[20] = molecular target: T1, Nuclear receptor subfamily 1 group I member 3; assay: Inhibition of GST-tagged human CAR LBD assessed as FRET signal stability measured for 90 to 180 mins incubated for 90 mins by TR-FRET assay; conditions: time 90-180 min
[21] = molecular target: T1, Nuclear receptor subfamily 1 group I member 3; assay: Inhibition of GST-tagged human CAR LBD at 3 uM incubated for 90 mins in presence of Cy5-PGC1-alpha by HTRF co-activator assay relative to control; conditions: 1.5 h, read-out: Imax

T2 sequence (P49840 whole entry): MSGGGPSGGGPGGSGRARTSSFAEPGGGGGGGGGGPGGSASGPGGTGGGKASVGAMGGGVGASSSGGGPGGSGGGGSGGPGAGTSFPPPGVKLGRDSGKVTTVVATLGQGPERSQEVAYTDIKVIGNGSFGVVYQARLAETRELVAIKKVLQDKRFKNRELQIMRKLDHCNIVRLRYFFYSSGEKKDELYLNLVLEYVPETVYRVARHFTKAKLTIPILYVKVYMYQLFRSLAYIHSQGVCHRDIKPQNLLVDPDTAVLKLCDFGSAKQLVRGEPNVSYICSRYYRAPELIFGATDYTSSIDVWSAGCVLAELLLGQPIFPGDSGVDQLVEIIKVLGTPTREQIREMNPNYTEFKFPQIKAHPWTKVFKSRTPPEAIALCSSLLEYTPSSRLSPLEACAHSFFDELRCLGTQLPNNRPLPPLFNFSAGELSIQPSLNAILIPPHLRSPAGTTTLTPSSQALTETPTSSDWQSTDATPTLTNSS
CDK9/cyclin T1, sequence (O60563 whole entry): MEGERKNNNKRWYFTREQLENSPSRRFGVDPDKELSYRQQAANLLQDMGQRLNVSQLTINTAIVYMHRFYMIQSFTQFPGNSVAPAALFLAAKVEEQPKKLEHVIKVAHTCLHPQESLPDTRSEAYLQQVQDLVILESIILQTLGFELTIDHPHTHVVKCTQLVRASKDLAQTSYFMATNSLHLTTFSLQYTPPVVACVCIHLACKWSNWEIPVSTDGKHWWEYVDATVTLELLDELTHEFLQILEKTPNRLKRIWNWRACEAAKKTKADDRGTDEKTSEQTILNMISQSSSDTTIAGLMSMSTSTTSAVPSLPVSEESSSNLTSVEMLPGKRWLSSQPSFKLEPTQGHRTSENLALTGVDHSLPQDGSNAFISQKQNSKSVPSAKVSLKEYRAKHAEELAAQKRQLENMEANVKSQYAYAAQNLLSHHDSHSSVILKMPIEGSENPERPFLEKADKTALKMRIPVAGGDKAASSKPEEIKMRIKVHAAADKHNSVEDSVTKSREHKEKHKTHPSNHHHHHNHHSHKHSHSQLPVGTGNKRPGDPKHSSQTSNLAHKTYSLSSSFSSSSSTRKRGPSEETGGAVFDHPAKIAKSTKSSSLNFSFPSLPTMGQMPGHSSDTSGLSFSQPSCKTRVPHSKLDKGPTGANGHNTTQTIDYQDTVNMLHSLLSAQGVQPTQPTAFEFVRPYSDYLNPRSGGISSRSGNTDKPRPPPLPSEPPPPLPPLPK
CDK9/cyclin T1, sequence (P50750 whole entry): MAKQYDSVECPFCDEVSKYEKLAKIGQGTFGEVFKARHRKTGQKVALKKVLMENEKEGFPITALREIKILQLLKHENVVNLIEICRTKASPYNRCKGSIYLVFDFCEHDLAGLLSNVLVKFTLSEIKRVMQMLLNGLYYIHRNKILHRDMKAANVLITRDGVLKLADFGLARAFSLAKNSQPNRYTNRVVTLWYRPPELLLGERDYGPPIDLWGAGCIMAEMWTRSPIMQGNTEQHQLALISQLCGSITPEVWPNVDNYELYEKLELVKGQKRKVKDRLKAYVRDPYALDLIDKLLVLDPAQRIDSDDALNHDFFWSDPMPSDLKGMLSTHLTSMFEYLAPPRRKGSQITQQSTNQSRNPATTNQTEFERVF

IC50 [1]: 12.8 nM
Structure (SMILES): O=C(Nc1ccc2c(c1)N(C(=O)Cn1cccc1)c1ccccc1CC2)OC1CCCCC1

IC50 [2]: 29.1 nM
IC50 [4]: 1200 nM
inhibition [5]: 27.3%
Structure (SMILES): COc1cc(F)ccc1-c1ncnc(Nc2cccc(C[S@](C)(=N)=O)c2)n1 [ATUVECICLIB]
IC50 [3]: 2600 nM

Kd [6]: 4.5 nM
Kd [7]: 530 nM
inhibition at […] [8]: 95.9%
Kd [9]: 550 nM
Activity [10]: inactive
IC50 [11]: 224 nM
fold change (FC) [12]: 9.7
fold change (FC) [13]: 9.1
Kd [15]: 300 nM
Kd [16]: 5.1 nM
Structure (SMILES): Cc1cc(C)n2c1C=C1C=CC(CCC(=O)N3CCC(C(=O)Nc4ncc(SCc5ncc(C(C)(C)C)o5)s4)CC3)=[N+]1[B-]2(F)F
Kd [14]: 340 nM

IC50 [4]: 296 nM
Ki [4]: 239 nM
Structure (SMILES): CN1CC[C@H](c2c(O)cc(O)c3c(=O)cc(-c4ccccc4Cl)oc23)[C@H](O)C1 [ALVOCIDIB]
IC50 [3]: 164 nM
Ki [3]: 120 nM

IC50 [2]: 270 nM
IC50 [4]: 6500 nM
Structure (SMILES): CN1CC[C@@H](c2c(O)cc(O)c3c(=O)cc(-c4ccccc4Cl)oc23)[C@@H]1CO
IC50 [3]: 706 nM

fold change (FC) [17]: 2.6
IC50 [2]: 20200 nM
inhibition [18]: 40.7%
IC50 [4]: 51.6 nM
inhibition [19]: < 20%
Structure (SMILES): COc1cc(N2CCOCC2)ccc1Nc1ncc(F)c(Nc2ccccc2NS(C)(=O)=O)n1
IC50 [3]: 2800 nM

inhibition (INH) [20]: Active
inhibition at 3 µM [21]: 100%
Structure (SMILES): Clc1ccc(-c2nc3sccn3c2/C=N/OCc2ccc(Cl)c(Cl)c2)cc1

IC50 [1]: 651 nM
Structure (SMILES): O=S(=O)(c1ccccc1)N(CC(F)(F)F)c1ccc(C(O)(C(F)(F)F)C(F)(F)F)cc1 [T091317]
